The text below walks through data of patent US20250171417A1, “HETEROCYCLIC DERIVATIVE, AND COMPOSITION AND PHARMACEUTICAL USE THEREOF” (Xizang Haisco Pharmaceutical Co., Ltd., priority 2021, published 2025).

Data set [1] relates to AR splice variants (AR-Vs). The data set can be described thus: Degradation experiment on AR splice variants (AR-Vs) in 22RV1 cells. The data set is classed as cell-based. The settings on record: 2 μM, 24 h. The procedure:
(§1) Prostate cancer cells 22RV1 were purchased from ATCC, the cell medium was 1640+10% FBS, and the cells were cultured in an incubator at 37° C. under 5% CO2. On day 1, the cells in an exponential phase were collected. With a 1% css-FBS phenol red-free medium, the cell suspension was adjusted to a corresponding concentration and plated into a 6-well plate at 1 mL/well and 100000 cells/well. The next day, a 1% css-FBS phenol-free medium containing the compound to be tested was added, a 1% css-FBS phenol-free medium containing 0.2% DMSO was added to one well as DMSO vehicle control, and the 6-well plate was cultured in an incubator at 37° C. under 5% CO2. After 24 h, the cells were digested with pancreatin and collected into a 1.5 mL centrifuge tube. […] The supernatant protein samples were collected, and protein quantification was performed by a BCA method. AR-FL and AR-Vs were detected using fully automatic protein expression quantitative analysis, which involved diluting the protein to be tested to 1 mg/mL, 4 μL of the diluted protein samples were added to 1 μL of […] (provided in the kit), and the prepared samples were denatured at 95° C. for 5 min and placed on ice for use. […] The prepared reagents were successively added to an assay plate according to instructions of the kit and detected on an instrument. […]

A short description of data set [2]: Pharmacokinetic test in rats. Format: in vivo. The settings on record: rat, plasma, po, male SD rats; for bioavailability: i.g. 5 mg/kg vs intravenous 2 mg/kg; for AUC(0-t): i.g. 5 mg/kg. The procedure:
Test objective: In this experiment, a single dose of each test compound was administered to SD rats intravenously and intragastrically, and the concentrations of the test compounds in plasma of rats were measured to evaluate the pharmacokinetic characteristics of the test compounds in rats.
Experimental animals: male SD rats, 200-250 g, 6-8 weeks old, 6 rats/compound, purchased from Chengdu Ddossy Experimental Animals Co., Ltd.
Experimental method: on the day of the test, 6 SD rats were randomly grouped according to their body weight; the animals were fasted with water available for 12 to 14 hours one day before the administration of a test compound, and were fed 4 hours after the administration.
Sampling: Before and after the administration, 0.1 mL of blood samples were drawn from the orbits of the animals under isoflurane anesthesia, and placed in an EDTAK2 centrifuge tube. Centrifugation was carried out at 5000 rpm at 4° C. for 10 min, and the plasma was collected.
Time points for plasma collection in IV&PO group: 0, 5 min, 15 min, 30 min, 1 h, 2 h, 4 h, 6 h, 8 h, and 24 h.
Before analysis and detection, all samples were stored at −60° C. The samples were analyzed quantitatively by LC-MS/MS.

In a further data set the test system is Full-length AR (AR-FL). The data set can be described thus: Degradation experiment on full-length AR (AR-FL) in 22RV1 cells. The settings on record: 2 μM, 24 h. The data set is classed as cell-based. The procedure: as §1
Data set [3] has as its system Prostate cancer cells 22RV1. In words: Experiment on inhibiting 22RV1 cell proliferation (CellTiter-Glo, 7 days). The settings on record: Homo sapiens, 168 h, 22RV1 cells, 7 days incubation, cells with nM printed beside the value, read-out: IC50 values for inhibition of 22RVI cells. The data set is classed as cell-based. In a few lines:
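22RV1 cells at 2000/well in 1% charcoal-stripped-FBS phenol red-free medium, treated next day with compound for 7 days at 37 °C, 5% CO2. Viability by CellTiter-Glo luminescence; inhibition relative to DMSO vehicle, IC50 from dose-response fit.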

The target of data set [4] is T1, AR splice variant 7 (AR-V7) (Homo sapiens, UniProt P10275).
T1 construct: host or cells: 22RV1 prostate cancer cells
T1 sequence (P10275 1-644 isoform P10275-3): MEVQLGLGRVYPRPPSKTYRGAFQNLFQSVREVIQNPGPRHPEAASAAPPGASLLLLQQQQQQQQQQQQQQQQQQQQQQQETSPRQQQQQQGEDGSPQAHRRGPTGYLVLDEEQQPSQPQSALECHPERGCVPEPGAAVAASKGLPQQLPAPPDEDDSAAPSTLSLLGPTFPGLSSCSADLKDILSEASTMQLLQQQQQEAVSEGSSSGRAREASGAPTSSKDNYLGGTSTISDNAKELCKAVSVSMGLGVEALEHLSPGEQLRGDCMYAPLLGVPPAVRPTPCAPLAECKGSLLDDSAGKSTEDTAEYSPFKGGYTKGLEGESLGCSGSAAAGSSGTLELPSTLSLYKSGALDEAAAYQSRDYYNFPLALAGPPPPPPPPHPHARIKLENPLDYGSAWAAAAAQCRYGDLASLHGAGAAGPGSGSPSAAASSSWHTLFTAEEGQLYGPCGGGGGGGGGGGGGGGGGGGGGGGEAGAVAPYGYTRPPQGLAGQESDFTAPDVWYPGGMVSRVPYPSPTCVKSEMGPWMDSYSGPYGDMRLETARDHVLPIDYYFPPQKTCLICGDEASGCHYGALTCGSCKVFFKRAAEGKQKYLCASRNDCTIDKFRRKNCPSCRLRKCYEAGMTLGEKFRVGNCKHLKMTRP
The data set can be described thus: Degradation experiment on AR splice variant 7 (AR-V7) in 22RV1 cells. Format: cell-based. The settings on record: 24 h. The procedure: Prostate cancer cells 22RV1 were purchased from ATCC, the cell medium was 1640+10% FBS, and the cells were cultured in an incubator at 37° C. under 5% CO2. On day 1, the cells in an exponential phase were collected. With a 1% css-FBS phenol red-free medium, the cell suspension was adjusted to a corresponding concentration and plated into a 6-well plate at 1 mL/well and 300000 cells/well. The next day, a 1% css-FBS phenol-free medium containing the compound to be tested was added, a 1% css-FBS phenol-free medium containing 0.2% DMSO was added to one well as DMSO vehicle control, and the 6-well plate was cultured in an incubator at 37° C. under 5% CO2. After 24 h, the cells were digested with pancreatin and collected into a 1.5 mL centrifuge tube. 15 μL of RIPA lysate (containing 1× protease inhibitor cocktail) was added to each well, and the cells were lysed on ice for 15 min and then centrifuged at 12000 g at 4° C.′ for 10 min. The supernatant protein samples were collected, and protein quantification was performed by a BCA method. AR-V7 was detected using fully automatic protein expression quantitative analysis, which involved diluting the protein to be tested to 2 mg/mL, 4 μL of the diluted protein samples were added to 1 μL of 5× Master Mix (provided in the kit), and the prepared samples were denatured at 95° C. for 5 min and placed on ice for use. The primary antibodies. AR V7 (CST, 19672S) and β-actin (CST, 3700), were diluted with Antibody Diluent II (provided in the kit) at a dilution ratio of 1:10 and 1:500, respectively. The secondary antibody was a mixed goat anti-mouse and goat anti-rabbit secondary antibody in a ratio of 1:1, and the color development solution was a mixed solution of Lumino-S and Peroxide in a ratio of 1:1. The prepared reagents were successively added to an assay plate according to instructions of the kit and detected on an instrument. Western blot band processing was performed using “Compass for SW”, a fully automatic protein expression quantitative analysis software, in which western blot bands were automatically simulated based on signal values. The degradation rate of AR-V7 (4) relative to vehicle control at different compound concentrations was calculated according to formula (4), wherein AR-V7compound was the relative peak area of AR-V7 in the treated group, and AR-V7solvent was the relative peak area of AR-V7 in the vehicle control group.
DC50 calculation: the compound concentration DC50 values at which the degradation rate of AR-V7 was 50% were calculated using Graphpad software and analyzed using log (inhibitor) vs. response-Variable slope (four parameters) function according to formula (4).

What is called bioavailability is dose-corrected exposure relative to a reference, in per cent. Broadly, the AUC(0-t) is exposure summed from dosing to a finite time, without extrapolation to infinity. For `CC(C)(C(=O)Nc1cnc(C#N)c(C(F)(F)F)c1)n1cc(C#CC2CN(c3ccc4c(c3)C(=O)N(C3CCC(=O)NC3=O)C4=O)C2)cn1` (stereo not drawn) [Compound 4, N-(6-cyano-5-(trifluoromethyl)pyridin-3-yl)-2-(4-((1-(2-(2,6-dioxopiperidin-3-yl)-1,3-dioxoisoindolin-5-yl)azetidin-3-yl)ethynyl)-1H-pyrazol-1-yl)-2-methylpropanamide], in data set [1], the “degradation effect on AR-Vs” value was “significant degradation effect”. In addition, in data set [2], the bioavailability amounted to 51.2 ± 9.7% and the AUC(0-t) came out at 29400 ± 5590 ng·h/mL. Moreover, the “degradation effect on AR-FL” value in the data set with Full-length AR (AR-FL) is on record as “significant degradation effect”.

In general, IC50 refers to the concentration that gives 50% inhibition. For orientation: DC50 means the midpoint of the concentration-degradation curve. A lower DC50 goes with degradation at low concentration. For `CC#Cc1cc(C(F)(F)F)ccc1NC(=O)C(C)(C)n1cc(C#CC2CN(c3ccc4c(c3)C(=O)N(C3CCC(=O)NC3=O)C4=O)C2)cn1` (stereo not drawn) [Compound 118, 2-(4-((1-(2-(2,6-dioxopiperidin-3-yl)-1,3-dioxoisoindolin-5-yl)azetidin-3-yl)ethynyl)-1H-pyrazol-1-yl)-2-methyl-N-(2-(prop-1-yn-1-yl)-4-(trifluoromethyl)phenyl) propanamide], the IC50 in data set [3] was under 50 nM. Besides, the DC50 in data set [4] was under 500 nM. In data set [2], this compound returned a bioavailability of 52.4 ± 3.1% and an AUC(0-t) of 14000 ± 816 ng·h/mL.

On to `CC(C)(C(=O)Nc1ccc(C(F)(F)F)cc1C1CC1)n1cc(C#CC2CN(c3ccc4c(c3)C(=O)N(C3CCC(=O)NC3=O)C4=O)C2)cn1` (stereo not drawn) [Compound 30, N-(2-cyclopropyl-4-(trifluoromethyl)phenyl)-2-(4-((1-(2-(2,6-dioxopiperidin-3-yl)-1,3-dioxoisoindolin-5-yl)azetidin-3-yl)ethynyl)-1H-pyrazol-1-yl)-2-methylpropanamide], for which the IC50 in data set [3] is under 50 nM. Also, the DC50 in data set [4] is under 500 nM. Moreover, in data set [2], the bioavailability worked out at 98.1 ± 6.6% and the AUC(0-t) stood at 22500 ± 1510 ng·h/mL.
